The assay deals with patients with atrial fibrillation or flutter. In words: Placebo-controlled ascending dose study of intravenous tedisamil: conversion to normal sinus rhythm, overall (atrial fibrillation or flutter). Conditions: for Conversion to NSR at any time within 2.5 hrs after start of infusion (%) / Conversion to NSR at any time within 2.5 hrs after start of infusion (converted/total): Overall, ITT patient sample, patients with DC cardioversion excluded. Format: in vivo, human. The procedure: A Multi-Center, Double-Blind, Randomized, Placebo-Controlled, Sequential Ascending Dose Groups Study to evaluate the Efficacy and Safety of Intravenous Tedisamil in the Rapid Conversion to Normal Sinus Rhythm in Patients with Atrial Fibrillation or Flutter was performed.
• Tedisamil (0.4 mg/kg body weight) • Tedisamil (0.6 mg/kg body weight) • Placebo • Dosages were given as a 30 minute intravenous infusion regimen. 1. Study Design
This multicenter trial was a double-blind, randomized, placebo-controlled, ascending dose groups study comparing the efficacy and safety of intravenous tedisamil treatment versus placebo in symptomatic patients with atrial fibrillation or flutter (>3 hours and <48 hours). The primary efficacy endpoint of this study was the termination of atrial fibrillation or flutter (for at least 60 seconds) within 2.5 hours after start of the infusion.
Following screening and baseline assessments, eligible patients were randomized to tedisamil or placebo with a sequential dose escalation approach. In the first stage, patients received 0.4 mg tedisamil/kg body weight or placebo over a 30 minutes infusion period, with half the dose infused during the first 10 minutes and half the dose infused over the remaining 20 minutes. After interim safety evaluation, in the second stage, patients received 0.6 mg tedisamil/kg body weight or placebo, with the same infusion regimen.
Patients were discharged from the telemetry unit 24 hours post infusion and safety follow up was to be obtained after 28 days. Blinded reviews of 12-lead ECGs (including 60 seconds rhythm strip) and 24 hour Holters to adjudicate the clinical endpoint (conversion to normal sinus rhythm) were performed centrally according to standard guidelines.
Tedisamil dihydrochloride, 0.4 mg/kg body weight, 0.6.mg/kg body weight was administered intravenously. The total infusion time was 30 minutes, with half the dose infused within 10 minutes, and half the dose infused within the remaining 20 minutes.
The percentage of patients converted to normal sinus rhythm (for at least 60 seconds) at any time within 2.5 hours after the initiation of the infusion of study drug.
The intent-to-treat patient sample was analyzed for efficacy. All tests were two-sided and a p-value <0.05 was considered significant. Differences in percentages of conversion were compared among the treatment groups using the Pearson chi-square statistic. Safety analysis was conducted on the safety patient sample. Numbers and percentages of patients with adverse events were calculated for each treatment group, using MedDRA preferred terms and body systems. Descriptive statistics were summarized by treatment group for changes from baseline in QT, heart rate and blood pressure.
This first clinical study was a Multi-Center, Double-Blind, Randomized, Placebo-Controlled, Sequential Ascending Dose Groups Study to evaluate the Efficacy and Safety of Intravenous Tedisamil in the Rapid Conversion to Normal Sinus Rhythm in Patients with Atrial Fibrillation or Flutter. The active ingredient used was tedisamil dihydrochloride. The study was designed as a phase II study and executed in 35 to 40 centers in 3 to 4 countries. Study duration: Screening: up to 48 hours; treatment (in-patient): single 30-minute infusion; safety follow up: 24 hours (in-patient) with continuous telemetry and 28 day safety follow up.
The following methodology was applied: A multi-center, double-blind, randomized, placebo-controlled, sequential ascending dose groups study to evaluate the efficacy and safety of intravenous tedisamil versus placebo. The study drug was infused over 30 minutes, receiving half the dose within 10 minutes and half the dose within the remaining 20 minutes. The first patient group received 0.4 mg/kg bodyweight (bw), infused as 0.2 mg/kg bw within 10 minutes, continued with 0.2 mg/kg bw infused within 20 minutes. […]

For the compound `C1CCC2(C1)C1CN(CC3CC3)CC2CN(CC2CC2)C1` [Tedisamil, N,N′-dicyclopropylmethyl-9,9-tetramethylene-3,7-diazabicyclo[3,3,1]nonane], the “Conversion to NSR at any time within 2.5 hrs after start of infusion (%)” value is, setting by setting: (Female, 0.4 mg/kg) 31.6%; (Female, 0.6 mg/kg) 36.4%; (Male, 0.4 mg/kg) 45.2%; (Male, 0.6 mg/kg) 61.3%. Also, the “Conversion to NSR at any time within 2.5 hrs after start of infusion (converted/total)” value is given as 6/19 (Female, 0.4 mg/kg); 8/22 (Female, 0.6 mg/kg); 19/42 (Male, 0.4 mg/kg); 19/31 (Male, 0.6 mg/kg). The “Gender difference in conversion rate” value (first study (Phase II), tedisamil dihydrochloride) is “male patients show a higher conversion rate compared to women”. Besides, the “Conversion rates on extension of infusion beyond the times indicated” value (in vivo) is given as “did not produce higher conversion rates”. Also, the “Average time to cardioversion after the start of tedisamil administration” value (patients with atrial fibrillation or flutter of up to 48 hours duration, iv two-step infusion) is 35 min. For the same compound, the “Conversion of atrial fibrillation and flutter to NSR (in words)” value (two-step infusion regimen) was “effective in conversion of atrial fibrillation and flutter to NSR”.

Source of the values: patent US7087620B2, “Liquid pharmaceutical formulations containing 3,7-diazabicyclo[3,3,1]nonane compounds and methods of treatment relating to anti-arrhythmic events” (Solvay Pharmaceuticals GmbH, priority 2002, dated 2006).
